The values below come from patent publication US11168102B1, “Bicyclic heteroaryl compounds and uses thereof” (Revolution Medicines, Inc., priority 2019, dated 2021).

Read-outs that look alike come from different tables or passages of the source. A value given as a limit tells only on which side of the number the result lay.

The experiment concerns cellular pERK in PC-9 cells (EGFR Ex19Del). As to the kind of experiment: Potency assay: pERK (AlphaLISA SureFire Ultra p-ERK1/2) in PC-9 cells. Format: cell-based. Conditions: read-out: SOS1 pERK IC50.
The mark [1] stands for this setting: Homo sapiens, PC-9, 1 h, PC-9 cells (EGFR Ex19Del), 1 hour incubation, AlphaLISA SureFire Ultra p-ERK1/2.
Where [2] appears, read: PC-9 cells (EGFR Ex19Del), 1 hour incubation, AlphaLISA SureFire Ultra p-ERK1/2.

As for `CO[C@@]1(c2cc3c(N[C@H](C)c4cccc(C(F)F)c4F)ncnc3n(C)c2=O)CCN(C(C)=O)C(C)(C)C1` [Example 32-53], the IC50 (usually the point on the concentration scale where inhibition reaches its midpoint) under setting [1] amounted to 0.199 µM.
The same measure, in the same setting: as for `CO[C@@]1(c2cc3c(N[C@H](C)c4cccc(C(F)F)c4F)ncnc3n(C)c2=O)CCN(C(C)=O)[C@H](C)C1` [Example 32-28], the figure is 0.0921 µM; as for `CC(=O)NC1(c2cc3c(N[C@H](C)c4cccc(C(F)F)c4F)ncnc3n(C)c2=O)CCS(=O)(=O)CC1` [Example 31-3], 0.777 µM.
In the case of `C[C@@H](Nc1ncnc2c1cc(C1(C#N)CCC3(CC1)CS(=O)(=NC1CC1)C3)c(=O)n2C)c1cccc(C(F)F)c1F` (single isomer, unassigned) [Example 58-1], under setting [2], the IC50 was determined as 0.386 µM.
Turning to `CO[C@@]1(c2cc3c(N[C@H](C)c4cccc(C(F)F)c4F)ncnc3n(C)c2=O)C[C@H](C)N(C(C)=O)C1` [Example 32-50], the IC50 under setting [1] turned out to be 0.153 µM.
For `C[C@@H](Nc1ncnc2c1cc(C(=O)N1CCOC3(CCOC3)C1)c(=O)n2C)c1cccc(C(F)F)c1F` (stereo partly drawn) [Example 26-46], the IC50 under setting [1] was determined as 0.322 µM.
As to `C[C@@H](Nc1ncnc2c1cc(C1CC3(C1)CS(=O)(=O)C3)c(=O)n2C)c1cccc(C(F)F)c1F` [Example 33, 6-(4-{[(1R)-1-[3-(difluoromethyl)-2-fluorophenyl]ethyl]amino}-8-methyl-7-oxo-7H,8H-pyrido[2,3-d]pyrimidin-6-yl)-2λ^6-thiaspiro[3.3]heptane-2,2-dione], under setting [1], the IC50 was 0.145 µM.
On to `C[C@@H](Nc1ncnc2c1cc(C(=O)N1CCC(O)(C(F)(F)F)CC1)c(=O)n2C)c1cccc(C(F)F)c1F` [Example 26-50], for which the IC50 under setting [1] amounted to 0.88 µM.
In the case of `C[C@@H](Nc1ncnc2c1cc(C1CCC3(CC1)CS(=O)(=O)C3)c(=O)n2C)c1cccc(C(F)F)c1F` [Example 33-2], the half-inhibitory concentration (IC50) under setting [1] is 0.0716 µM.
As to `C[C@@H](Nc1ncnc2c1cc(C(=O)N1CCCC13COC3)c(=O)n2C)c1cccc(C(F)F)c1F` [Example 26-14], the IC50 under setting [1] is 0.122 µM.
Still for that read-out and setting: as for `C[C@@H](Nc1ncnc2c1cc(C1=CCS(=O)(=O)CC1)c(=O)n2C)c1cccc(C(F)(F)CN)c1F` [Example 42, 4-(4-{[(1R)-1-[3-(2-amino-1,1-difluoroethyl)-2-fluorophenyl]ethyl]amino}-8-methyl-7-oxo-7H,8H-pyrido[2,3-d]pyrimidin-6-yl)-3,6-dihydro-2H-1λ^6-thiopyran-1,1-dione], the figure is 0.242 µM; as for `COC1(c2cc3c(N[C@H](C)c4cccc(C(F)F)c4F)ncnc3n(C)c2=O)CCC2CN(C(C)=O)CC21` (stereo partly drawn) [Example 32-35], 0.244 µM.
As to `C[C@@H](Nc1ncnc2c1cc(C1(C#N)CCN(C3COC3)CC1)c(=O)n2C)c1cccc(C(F)F)c1F` [Example 36-16], under “Homo sapiens, PC-9, 1 h”, the IC50 is 0.222 µM.
`C[C@@H](Nc1ncnc2c1cc(C1(F)CN(C)C1)c(=O)n2C)c1cccc(C(F)F)c1F` [Example 29-1]: the IC50 under setting [1] is 0.122 µM.
With `COC1(c2cc3c(N[C@H](C)c4cccc(C(F)F)c4F)ncnc3n(C)c2=O)CCCS(=O)(=O)CC1` (stereo partly drawn) [Example 32-33], the IC50 under setting [1] was 0.0859 µM.
For `COC1(c2cc3c(C[C@H](C)c4cccc(C(F)F)c4F)ncnc3n(C)c2=O)CC2(C1)CS(=O)(=NC1CC1)C2` (stereo partly drawn) [Example 68-2], under setting [1], the IC50 is 0.136 µM.
Still for that read-out and setting: as for `C[C@@H](Nc1ncnc2c1cc(C1(N)CC3(C1)CS(=O)(=O)C3)c(=O)n2C)c1cccc(C(F)F)c1F` [Example 31-4], the figure is 0.18 µM.
Consider `C[C@@H](Nc1ncnc2c1cc(C1CS(=O)(=O)C1)c(=O)n2C)c1cccc(C(F)F)c1F` [Example 33-16], for which, under setting [1], the IC50 came to 0.0879 µM.
Take `C[C@@H](Nc1ncnc2c1cc(C1CCS(=O)(=O)CC1)c(=O)n2C)c1cccc(-c2ccccc2CN)c1` [Example 33-17]: the IC50 under setting [1] was 0.285 µM.
The same measure, in the same setting: the result for `C[C@@H](Nc1ncnc2c1cc(C1(F)CCS(=O)(=O)C1)c(=O)n2C)c1cccc(C(F)F)c1F` (stereo partly drawn) [Example 29-11] reads 0.0443 µM; that for `C[C@@H](Nc1ncnc2c1cc(C(=O)N(C)c1cccnc1)c(=O)n2C)c1cccc(C(F)F)c1F` [Example 26-10], 2.09 µM.
With `C[C@@H](Nc1ncnc2c1cc(C1(O)CC3(C1)CS(=O)(=O)C3)c(=O)n2C)c1cccc(C(F)F)c1F` [Example 28-4], the IC50 under setting [1] stood at 0.0837 µM.
Same read-out and setting: as for `CC(=O)N1CCC(c2cc3c(N[C@H](C)c4cccc(C(F)F)c4C(F)F)ncnc3n(C)c2=O)CC1` [Example 38, 6-(1-acetylpiperidin-4-yl)-4-{[(1R)-1-[2,3-bis(difluoromethyl)phenyl]ethyl]amino}-8-methyl-7H,8H-pyrido[2,3-d]pyrimidin-7-one], the figure is 0.137 µM.
Turning to `C[C@@H](Nc1ncnc2c1cc(C1(C#N)CCS(=O)(=NC3CC3)CC1)c(=O)n2C)c1cccc(C(F)F)c1F` (stereo partly drawn) [Example 59, (1S,4s)-1-(cyclopropylimino)-4-(4-(((R)-1-(3-(difluoromethyl)-2-fluorophenyl)ethyl)amino)-8-methyl-7-oxo-7,8-dihydropyrido[2,3-d]pyrimidin-6-yl)hexahydro-1λ^6-thiopyran-4-carbonitrile 1-oxide], under setting [2], the half-inhibitory concentration (IC50) worked out at 0.0288 µM.
Regarding `C[C@@H](Nc1ncnc2c1cc(C1(O)CCN(C(=O)OC(C)(C)C)C1)c(=O)n2C)c1cccc(C(F)F)c1F` (stereo partly drawn) [Example 28-9], the IC50 under setting [1] worked out at 0.369 µM.
Take `C[C@@H](Nc1ncnc2c1cc(C1(F)CCS(=O)(=NC3CC3)CC1)c(=O)n2C)c1cccc2c1OCC2(F)F` (stereo partly drawn) [Example 56-5]: under setting [2], the IC50 stood at 0.0441 µM.
As for `C[C@@H](Nc1ncnc2c1cc(C(=O)N1CC3(CCCO3)C1)c(=O)n2C)c1cccc(C(F)F)c1F` [Example 26-13], the IC50 under setting [1] was 1.13 µM.
`C[C@@H](Nc1ncnc2c1cc(C1(F)CCC3(CC1)CS(=O)(=NC1CC1)C3)c(=O)n2C)c1cccc(C(F)F)c1F` (single isomer, unassigned) [Example 56-3]: under setting [2], the IC50 came out at 0.0862 µM.
For `CO[C@]1(c2cc3c(N[C@H](C)c4cccc(C(F)F)c4F)ncnc3n(C)c2=O)CCN(S(C)(=O)=O)C1` [Example 32-16], the IC50 under setting [1] stood at 0.268 µM.
On to `C[C@@H](Nc1ncnc2c1cc(C1(C#N)CCS(=O)(=O)CC1)c(=O)n2C)c1cccc(C(F)F)c1F` [Example 36-1], for which the IC50 under setting [1] is 0.0116 µM.
Turning to `COC1(c2cc3c(N[C@H](C)c4cccc(C(F)F)c4F)ncnc3n(C)c2=O)C[C@H]2C[C@@H]1CN2C(C)=O` (stereo partly drawn) [Example 32-14], the IC50 under setting [1] was 1.31 µM.
On the same count and under the same terms, the result for `COC1(c2cc3c(N[C@H](C)c4cccc(C(F)F)c4F)ncnc3n(C)c2=O)CN(S(C)(=O)=O)C1` [Example 32-10] reads 0.436 µM; that for `COC1(c2cc3c(N[C@H](C)c4cccc(C(F)F)c4F)ncnc3n(C)c2=O)CCN(C(C)=O)C(C)(C)C1` (stereo partly drawn) [Example 32-29], 0.0537 µM.
Same read-out and setting: the result for `C[C@@H](Nc1ncnc2c1cc(C1CCS(=O)(=O)CC1)c(=O)n2C)c1cccc2c1OCC2(F)F` [Example 33-3] reads 0.0348 µM.
Regarding `C[C@@H](Nc1ncnc2c1cc(C1=CCS(=O)(=NC3COC3)CC1)c(=O)n2C)c1cccc(C(F)F)c1F` (stereo partly drawn) [Example 66, 4-(((R)-1-(3-(difluoromethyl)-2-fluorophenyl)ethyl)amino)-8-methyl-6-((R)-1-(oxetan-3-ylimino)-1-oxido-1,2,3,6-tetrahydro-1λ^6-thiopyran-4-yl)pyrido[2,3-d]pyrimidin-7(8H)-one], the IC50 under setting [2] came to 0.0291 µM.
Regarding `CC(=O)N1CC2(C1)CN(C(=O)c1cc3c(N[C@H](C)c4cccc(C(F)F)c4F)ncnc3n(C)c1=O)C2` [Example 26-40], the IC50 under setting [1] came to 0.453 µM.
As to `COCC(=O)N1CCC(OC)(c2cc3c(N[C@H](C)c4cccc(C(F)F)c4F)ncnc3n(C)c2=O)CC1` [Example 32-13], under setting [1], the IC50 was found to be 0.044 µM.
Regarding `C[C@@H](Nc1ncnc2c1cc(C1=CCCOC1)c(=O)n2C)c1cccc(C(F)F)c1F` [Example 1-6], the IC50 under setting [1] was determined as 0.18 µM.
On to `C[C@@H](Nc1ncnc2c1cc(C(=O)N1CC3(CCOC3)C1)c(=O)n2C)c1cccc(C(F)F)c1F` [Example 26-15], for which the IC50 under setting [1] was found to be 0.256 µM.
In the case of `COC1(c2cc3c(N[C@H](C)c4cccc(C(F)F)c4F)ncnc3n(C)c2=O)CCN(C=O)CC1` [Example 32-60], the IC50 under setting [1] was 0.0211 µM.
On to `C[C@@H](Nc1ncnc2c1cc(C1(C#N)CCS(=O)(=O)C1)c(=O)n2C)c1cccc(C(F)F)c1F` (stereo partly drawn) [Example 36-14], for which the IC50 under setting [2] came to 0.207 µM.
Consider `C[C@@H](Nc1ncnc2c1cc(C(=O)N1CCc3cnccc31)c(=O)n2C)c1cccc(C(F)F)c1F` [Example 26-27], for which the IC50 under setting [1] was determined as 0.803 µM.
Take `C[C@@H](Nc1ncnc2c1cc(C(=O)N1CCN3CCOCC3C1)c(=O)n2C)c1cccc(C(F)F)c1F` (stereo partly drawn) [Example 26-44]: the IC50 under setting [1] is 0.401 µM.
As to `Cc1nc(N[C@H](C)c2cc(N)cc(C(F)(F)F)c2)c2cc(C3=CCNCC3)c(=O)n(C)c2n1` [Example 6, 4-[[(1R)-1-[3-amino-5-(trifluoromethyl)phenyl]ethyl]amino]-2,8-dimethyl-6-(1,2,3,6-tetrahydropyridin-4-yl)pyrido[2,3-d]pyrimidin-7-one], the 50% inhibitory concentration (IC50) under setting [1] was 0.188 µM.
Regarding `C[C@@H](Nc1ncnc2c1cc(C1=CCS(=O)(=O)CC1)c(=O)n2C)c1cccc(C(F)F)c1CC#N` [Example 63, 2-[2-(difluoromethyl)-6-[(1R)-1-[[6-(1,1-dioxo-3,6-dihydro-2H-thiopyran-4-yl)-8-methyl-7-oxo-pyrido[2,3-d]pyrimidin-4-yl]amino]ethyl]phenyl]acetonitrile], the IC50 under setting [1] was more than 10 µM.
The same measure, in the same setting: as for `C[C@@H](Nc1ncnc2c1cc(C1CCS(=O)(=NC(N)=O)CC1)c(=O)n2C)c1cccc(C(F)F)c1F` (stereo partly drawn) [Example 33-24], the figure is 0.293 µM; as for `CO[C@]1(c2cc3c(N[C@H](C)c4cccc(C(F)F)c4F)ncnc3n(C)c2=O)CCN(C(C)=O)C1` [Example 32-2], 0.01 µM.
Consider `C[C@@H](Nc1ncnc2c1cc(Sc1ccccc1)c(=O)n2C)c1cccc(C(F)F)c1F` [Example 30, 4-{[(1R)-1-[3-(difluoromethyl)-2-fluorophenyl]ethyl]amino}-8-methyl-6-(phenylsulfanyl)-7H,8H-pyrido[2,3-d]pyrimidin-7-one], for which the IC50 under setting [1] is 2.76 µM.
